Assay results taken from the METLIN SMRT retention time set (Domingo-Almenara et al. 2019).

Assay: gradient 5% acetonitrile 3 min, to 50% in 2 min, to 85% in 15 min, held 3 min, 100 µL/min
Conditions: column: Zorbax Extend-C18 2.1 x 50 mm; eluents: water / acetonitrile, 0.1% formic acid
In short: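 Data were gathered over 3 months by HPLC coupled to a quadrupole time-of-flight mass spectrometer, operated in positive and negative ionization mode. Mixtures of ~100 pure standards ran on a Zorbax Extend-C18 column (2.1 × 50 mm, 1.8 μm) at 100 μL/min, with water and acetonitrile each containing 0.1% formic acid and dead and dwell volumes of 40 μL and 900 μL. Retention time was read from adduct peaks picked by computer and checked manually.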

Structure (SMILES)	RP-LC retention time [s]
COCCC1CCN(C(=O)CN(C)C(=O)Cc2c(C)noc2C)CC1	627
Cn1cccc1C(=O)N1C[C@@H]2C[C@H]1C[C@@H]2NC(=O)c1cccs1	700
CC(C(=O)Nc1ccccc1C(F)(F)F)n1cnc2nc3c(cc2c1=O)CCCC3 (configuration not stated)	768
CCN(Cc1ccccc1)C(=O)CN1C(=O)CCc2cc(Br)ccc21	1000
COC(=O)C1=CN(c2cc(F)ccc2C)c2ccccc2S1(=O)=O	832
Cc1oc(-c2[nH]ncc2C(=O)N2CCCC2)cc1S(=O)(=O)N(C)C	620
Nc1nc(Nc2ccc(F)cc2)nc2cccc(F)c12	627
Cc1c(S(=O)(=O)NCc2ccc3c(c2)CCN3C(=O)CC(C)C)cnn1C(F)F	911
Cn1cc(C2c3ccccc3C(=O)N2CC(N)=O)c2ccccc21 (configuration not stated)	696
CCCN(C(=O)c1ccccc1C)c1nc(-c2ccccc2)cs1	1320
CCC(=O)NCCc1csc(C2CCN(C(=O)C3CCC3)CC2)n1	679
COc1ccc(CNC(=O)c2cn(C)c3ncccc23)cc1	711
COc1cccc(-n2ccn3cc(-c4cccc(Cl)c4)nc3c2=O)c1	837
O=C(NCc1cnoc1-c1ccc(F)cc1)c1ccc2c(c1)OCO2	881
Cc1ccc(Nc2c(-c3ccc(Cl)cc3)nc3cnccn23)c(Br)c1	1170
Cc1cc(C(=O)N(CC2CCCO2)c2nc3c(F)cc(F)cc3s2)on1 (configuration not stated)	1080
CCc1cc(-c2csc(S(=O)(=O)Nc3ccc(F)c(Cl)c3)c2)on1	1020
CCCc1ccc(S(=O)(=O)N2CCc3c(c(-c4nnc(-c5ccc(C)cc5)o4)nn3C)C2)cc1	1160
CN(C)C(=O)c1ccc2c(c1)nnn2CCNC(=O)Nc1ccccc1F	638
O=C(CSc1ccc(N2CCCC(C(=O)NC3CC3)C2)nn1)NCc1ccccc1 (configuration not stated)	603

Structure (SMILES)	RP-LC retention time [s]
Cn1c(NC(=O)c2cccc([N+](=O)[O-])c2)c(-c2cccs2)c(=O)c2ccccc21	701
COc1ccc(NS(=O)(=O)c2cc3n(c2)CCN(C)C3=O)cc1Cl	696
Cc1ccc(-n2c(N3CCCC(C(=O)NCc4ccc(F)cc4F)C3)nc3ccsc3c2=O)cc1 (configuration not stated)	918
O=C(NCCc1c[nH]c2ccccc12)c1cc2cccnc2n(Cc2ccccc2)c1=O	1070
COc1cc(OC)c(OC)cc1CN1CC[C@]2(CO)CN(Cc3ccccc3)C[C@@H]2C1	597
O=C1CN(S(=O)(=O)c2cccnc2)C2(CCCC2)CN1CC1CC1	746
Cn1cnc(C(=O)N2CC(F)(F)C[C@H]2c2nc(C3CC3)no2)c1	667
O=C(c1nc(-c2ccnc(N3CCCCC3)c2)no1)N1CCC2(CC1)OCCO2	673
Cc1ccc(-c2nc(-c3cccc(-c4ccnn4C)c3)no2)s1	1160
Cc1nc2cc(-c3noc(-c4ccc(C#N)cc4)n3)ccc2o1	1010
COc1ccc2c(c1)C1(CCN(C(=O)c3ccc(C)cc3)C1)C(=O)N2C (configuration not stated)	785
Cc1ccsc1C(=O)N1CCC2(CC1)NCc1ccccc1-n1ccnc12	588
Cc1ccc(S(=O)(=O)N2CC(=O)N(CCC(C)C)C(C)(C(=O)NCc3ccccc3)C2)cc1 (configuration not stated)	1040
Cc1ccccc1NS(=O)(=O)c1cn(CC(C)C)c2ncccc12	976
O=C(NCCc1c[nH]c2ccccc12)c1cc2cccnc2n(Cc2ccccc2F)c1=O	1080
FC(F)(F)c1ccc(/C=C/c2nc(COc3ccc(CCCCn4ccnn4)cc3)co2)cc1	1170
CSc1nnc(-c2nn(C)c3c2CN(C(=O)c2ccc(F)c(F)c2)CC3)n1C	720
COc1ccc(-c2csc(Nc3ccc(Br)cn3)n2)cc1	1170
CC(C)(C)NC(=O)c1ccc2nc(-c3ccccc3)cn2c1	783

Other lines, results leading:

RP-LC retention time [s]	Structure (SMILES)
889	Cn1nc(COc2ccccc2)c2c1CCN(C(=O)Nc1ccccc1Cl)C2
847	CCOC(=O)c1cc(S(=O)(=O)N2CCCC2C(=O)Nc2cccc(C)n2)cn1C (configuration not stated)
639	CCCN1CCN(CCNC(=O)C2CCCN(c3ncc(-c4ccccc4)cn3)C2)CC1 (configuration not stated)
984	COc1ccc(NC(=O)c2cn(-c3cc(N4CCCCC4)ncn3)cn2)cc1Cl
966	COc1ccc(N2CCN(c3cc(SCC(=O)Nc4ccc(C)cc4)ncn3)CC2)cc1
838	CCNc1nc(C)cc(N2CCN(S(=O)(=O)c3cc(C(C)C)ccc3C)CC2)n1
784	COc1ccc(OC)c(CNc2c(-c3nc(C(C)C)no3)cnc3nc(C)ccc23)c1
726	O=C(NC(c1ccccc1)c1nnc(N2CCOCC2)o1)c1ccc2c(c1)OCO2 (configuration not stated)
1050	O=S(=O)(c1cc(-c2nnc(C3CCC3)o2)co1)N1CCN(c2ccccc2)CC1
613	Cc1cccc(-c2noc(-c3ccc(N4CCN(c5ccccc5F)CC4)nc3)n2)c1
983	CCOc1ccccc1-c1noc(Cn2c(=O)n(CC)c(=O)c3ccccc32)n1
606	COc1ccc(C)cc1Nc1nc(N)nc(CN2CCN(c3ccccn3)CC2)n1
720	CCOc1ccc(NC(=O)C2(CC)CCCCC(=O)N2)cc1 (configuration not stated)
624	CCOc1ccc(NC(=O)N2CCN(c3cc(C)nc(N4CCOCC4)n3)CC2)cc1
574	CCC(CC)N1CCN(C(=O)c2nc(N3CCSCC3)c3cn(C)nc3n2)CC1
946	CS(=O)(=O)Nc1ccc(C2(C(=O)NCc3ccccc3Cl)CCCCC2)cc1
924	COc1ccc(-n2c(=O)n(C)c(=O)c3cc(C(=O)NC4CCCCCC4)cnc32)cc1
1100	CCCCCNC(=O)C1CCN(c2nccnc2Sc2ccc(C)cc2)CC1
861	O=C(c1cc2occc2c(Nc2ccc(Cl)cc2)n1)N1CCN(C(=O)c2ccco2)CC1
877	O=C(C1CCC1)N1CCc2sc(S(=O)(=O)NCc3ccc(F)cc3)cc2C1
872	CCOc1ccc(N2C=C(C(=O)N3CCCC3)S(=O)(=O)c3ccc(F)cc32)cc1
805	CCOC(=O)c1ccc(NC(=O)C2CCN(C(=O)C3Sc4ccccc4NC3=O)CC2)cc1 (configuration not stated)
645	CCc1nc(-c2csc(S(=O)(=O)N3CCC(C(=O)NCc4cccnc4)CC3)c2)no1
583	CN1CCN(CCCNC(=O)CCC(=O)N2CCCn3nc(-c4cn(C)c5ccccc45)cc32)CC1

RP-LC retention time [s]	Structure (SMILES)
760	CCCN(C)C(=O)c1ccc(-c2nnc3ccc(NC(=O)C4CCC4)cn23)cc1
953	COC(=O)c1cc(C)nc2c1c(=O)n(Cc1ccc(OC)cc1)c(=O)n2C
639	COc1ccc(-c2nc(C)cc(C)c2CNC(=O)CC2CCCC2)cc1
911	Cc1ccc(NC(=O)N2CCC(n3cnc4cc(Cl)ccc4c3=O)CC2)cc1C
713	O=C(Cn1c(=O)n(C2CC2)c(=O)c2nscc21)N1CCN(c2ccccc2F)CC1
718	O=C(c1cn2ccccc2n1)N1CCN(c2cccc(Cl)c2)CC1
603	O=C1CCCc2cc(S(=O)(=O)NCC3CCN(Cc4ccc(F)cc4)CC3)ccc2N1
891	COc1ccc(N2CC(c3nc(-c4ccc5c(c4)OCO5)no3)CC2=O)cc1 (configuration not stated)
681	O=C(CSCC(=O)N1CCOCC1)Nc1nc(-c2ccc3c(c2)OCO3)cs1
682	CCSc1nnc(-c2nn(C)c3c2CN(C(=O)c2cccc(N(C)C)c2)CC3)n1C
563	COc1ccc(CCNC(=O)C2CCc3nc(N4CCCC4)ncc3C2)cc1OC (configuration not stated)
667	CCC(=O)N1CCc2cc(N3CC(C(=O)NCc4ccco4)CC3=O)ccc21 (configuration not stated)
870	CCC1CCCCN1C(=O)c1ccc(-c2nnc3ccc(NC(=O)C4CCC4)cn23)cc1 (configuration not stated)
618	Cc1nn(-c2cc(N3CCOCC3)ncn2)c(C)c1CCC(=O)N1CCN(c2ccccn2)CC1
878	CC(C)NC(=O)c1ccc(OCC2CCN(C(=O)c3ccc(Br)o3)CC2)cc1
692	Cc1ccc(CNC(=O)N2CCC(c3cc(N)on3)CC2)cc1
778	Cc1nc(N2CCOCC2)c2c(C(=O)Nc3ccccc3)c(C)oc2n1
828	Cc1ccc(NC(=O)CN2C(=O)C3CCCCN3c3ccc(S(=O)(=O)N(C)C)cc32)nc1 (configuration not stated)
674	Cc1cc(C)cc(NC(=O)Cn2nc3n(c2=O)CCCC3)c1
817	COCCC(=O)N1CCCN(C2=NS(=O)(=O)C(c3ccc(C(C)C)cc3)=C2C)CC1
674	O=C(Cc1ccsc1)N1CCc2nn(CC3CC3)c(=O)n2CC1
571	CCCN1CCN(CCCNC(=O)C(C)n2c3ccccc3c3cnn(C)c(=O)c32)CC1 (configuration not stated)
614	O=C([C@@H]1C[C@H](F)CN1C(=O)c1cccc(F)c1)N1CCOCC1
1040	COc1cccc(-c2nc(C3CCN(C(=O)c4cc5ccccc5[nH]4)CC3)no2)c1
